Reference: patent publication US9746463B2 (THE TRUSTEES OF COLUMBIA UNIVERSITY IN THE CITY OF NEW YORK, priority 2006, dated 2017)
Bridge positions count the residues as written; N and C are the ends. Square brackets hold non-standard residues; d marks the D form. Primed or numbered codes have the meaning given here. Ends that are not written are not given here. Gla′ = carboxylated glutamic acid

Experiments:
[1] = tested on: Adiponectin expression in WT adipocytes; assay: Adiponectin expression in adipocytes treated with osteocalcin (real time PCR); assay type: cell-based, mouse
Protocol: (§1) FIG. 7A-O. Esp−/− Mice Are a Model of Increased Osteocalcin Bioactivity. (FIGS. 7A-G) Comparison between 6-week-old WT, Esp−/, Ocn+/−, and Esp−/−; Ocn+/− mice. (FIG. 7A) Blood glucose levels. (FIG. 7B) Serum insulin levels. (FIG. 7C) Serum adiponectin levels. (FIG. 7D) GTT. (FIG. 7E) ITT. (FIG. 7F) GSIS test. (FIG. 7G) Quantification of the number of Ki67-immunoreactive cells in pancreatic islets. […] (FIG. 7K) Expression of Adiponectin in WT adipocytes cultured in presence of vehicle or of 1 ng/ml of commercially available carboxylated osteocalcin (Immunotopics) or bacterially produced uncarboxylated osteocalcin. (FIG. 7L) Expression of Insulin and Cyclin D1 in WT islets cultured in presence of 0.3 ng/ml of bacterially produced uncarboxylated osteocalcin or vehicle. (FIG. 7M) Metabolic parameters and total serum osteocalcin levels in control and obese patients. (FIG. 7N-O) Quantification of carboxylated osteocalcin (HA-bound osteocalcin) in control and obese patients. In (FIGS. 7A)-(C) and (FIGS. G)-(L): *p<0.05 versus WT (Student's t test); in (FIG. D)-(F), °p<0.05 versus WT and *p % 0.001 versus WT (ANOVA followed by post hoc analysis).
FIG. 15. […] Wt adipocytes were treated for 4 hours with recombinant full-length osteocalcin (1-46) or a truncated form (1-36) or vehicle. Adiponectin expression was then quantified by real time PCR.
Primary adipocytes were isolated from epididymal fat pads by collagenase digestion. Briefly, minced adipose tissue was digested by 1 mg/ml collagenase P in KRP Buffer (20 mM HEPES, 120 mM NaCl, 6 mM KCl, 1.2 mM MgSO4, 1 mM CaCl2, 0.6 mM Na2HPO4, 0.4 mM NaH2PO4, 2.5 mM D-glucose, 2% BSA, pH 7.4) for 1 h at 37° C. The isolated cells were washed twice with KRP Buffer before being cultured in αMEM/1% FBS at 37° C. in 5% CO2.
Gene expression analyses. All gene expression analyses were performed using real time PCR. DNAse I-treated total RNA was converted to cDNA with the SuperScript III kit (Invitrogen). Real-time PCR were performed using the Taq SYBR Green Supermix with ROX (Biorad) on an MX3000 instrument (Stratagene); beta-actin amplification was used as an internal reference for each sample. All primers were from SuperArray.
A fragment of uncarboxylated osteocalcin is biologically active. Experiments were performed to test whether truncated osteocalcin was as effective as full-length uncarboxylated osteocalcin in stimulating adiponectin secretion from mouse adipocytes in vitro. Wild type adipocytes were treated for 4 hours with recombinant full-length osteocalcin (1-46) or a truncated form (1-36) (having a deletion of the first ten amino acids from the C-terminal end) or vehicle. Adiponectin expression was then quantified by real time PCR. […]

[2] = hydroxyapatite competition studies; cited from earlier work
[3] = tested on: gamma-carboxylation of osteocalcin in osteoblasts; assay: Osteocalcin/hydroxyapatite (HA) binding assay of medium from warfarin-treated osteoblasts; assay type: cell-based, mouse
Protocol: as §1
Cell culture experiments. […]
Osteocalcin/hydroxyapatite (HA) binding assay. […] Osteocalcin present in eluates and initial samples was measured by IRMA. […]

[4] = tested on: Adiponectin expression in WT adipocytes; assay: Co-culture of adipocytes with warfarin-treated osteoblasts: adiponectin expression; assay type: cell-based, mouse; conditions: warfarin-treated vs vehicle-treated osteoblasts (FIG. 7J)
Protocol: as §1
Co-culture of osteoblasts and adipocytes to study regulation of adiponectin expression/secretion by osteocalcin. A co-culture assay was developed between osteoblasts and adipocytes to analyze modifications in adiponectin expression. […]

wild type osteoblasts = assay: Isoproterenol on wild type osteoblasts: mRNA levels by quantitative PCR; assay type: cell-based
From the text: The sympathetic nervous system positively regulates OST-PTP expression. It was discovered that sympathetic nervous system (SNS) activity positively regulates Esp expression in osteoblasts. […] Thus, decreasing sympathetic activity should lead to a decrease in Esp expression and thereby to an increase in the undercarboxylated, active form of osteocalcin.

With “1-36 fragment of uncarboxylated osteocalcin: Recombinant truncated mouse osteocalcin (1-36), ten amino acids deleted from the C-terminal end (YLGASVPSPDPLEPTREQCELNPACDELSDQYGLKT; not fully specified; ends and bridges not checked; UniProt P86546 50-85, looked up, fragment)” the “increase of Adiponectin expression” value ([1]; wild type adipocytes treated for 4 hours, real time PCR, vs vehicle) was roughly 1.8 fold and the “potency in inducing adiponectin expression compared with native osteocalcin” value ([1]; wt adipocytes, 4 hours, in vitro) was “as potent as native osteocalcin”.
In the case of “carboxylated osteocalcin: commercially available carboxylated osteocalcin (Immunotopics) (YLYQWLGAPVPYPDPL[Gla′]PRR[Gla′]VC[Gla′]LNPDCDELADHIGFQEAYRRFYGPV; disulfide 23-29; ends not checked; also: carboxylated (Gla), sites not given here; UniProt P02818 52-100, looked up) [reference compound]”, the “induction of adiponectin expression” value ([1]; WT adipocytes, 1 ng/ml (FIG. 7K)) was “failed to induce adiponectin expression”.
For “Decarboxylated osteocalcin: thermally decarboxylated osteocalcin of the literature (YLYQWLGAPVPYPDPLEPRREVCELNPDCDELADHIGFQEAYRRFYGPV; not fully specified; ends and bridges not checked; UniProt P02818 52-100, looked up)”, the “competition with ^125I-labeled osteocalcin bound to hydroxyapatite” value [2] is listed as “fail to compete”.
For `CC(=O)CC(c1ccccc1)c1c(O)c2ccccc2oc1=O` (stereo not drawn) [warfarin], the “percentage of osteocalcin bound to HA” value ([3]; conditioned medium of warfarin-treated osteoblasts vs vehicle (FIG. 7I)) was “marked decrease”, the “levels of undercarboxylated osteocalcin produced by osteoblasts” value ([3]; warfarin-treated vs vehicle-treated osteoblasts (FIG. 7I)) was “elevated levels” and the “induction of adiponectin expression in co-cultured adipocytes” value [4] was “significantly higher extent”.
With `CC(C)NCC(O)c1ccc(O)c(O)c1` (stereo not drawn) [isoproterenol] the “expression of gamma-carboxylase (ggcx)” value (wild type osteoblasts) was “did not increase expression”, the expression of osteocalcin (wild type osteoblasts) was “did not increase expression” and the expression of vkor (wild type osteoblasts) was “did not increase expression”. The “increase of Esp expression” value (wild type osteoblasts; at 8 hours) was “remains steady” and the “increase of Esp expression” value (wild type osteoblasts; by 4 hours) was “about 80%”.
